Among the test systems are MOLT-4 leukemia; UO-31 renal; SN12C renal; NCI-H226 lung; SR leukemia; SF-295 CNS; NCI/ADR-RES ovarian; DU-145 prostate; MDA-MB-231 breast; SF-539 CNS.
Common to all, as to assay: NCI-60 cell line screen, 48 h

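Compound exposure: 48 hours, 5 concentrations, 96-well plates. GI50 marks 50% less growth. TGI: total growth inhibition.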

`CC(C)NC(=O)O/N=C1\CCC2[C@@H]3CC=C4C[C@@H](OC(=O)NC(C)C)CC[C@]4(C)C3CC[C@]12C` (some centres undefined): the TGI with MOLT-4 leukemia is 4.81 µM; in the experiment with UO-31 renal, 2.3 µM; with SN12C renal, 3.14 µM; in the experiment on NCI-H226 lung, above 100 µM; with SR leukemia it was 7.69 µM; in the experiment on SF-295 CNS, 7.67 µM.
In the case of `CC1(C)CC2CC(C)(CN2c2ncnc3ccc(Br)cc23)C1` (centres undefined), the GI50 in the experiment on MOLT-4 leukemia was 0.134 µM; in the experiment on UO-31 renal, 14 µM; in the experiment on SN12C renal it was 10.3 µM; in the experiment on NCI-H226 lung, 3.32 µM; in the experiment on NCI/ADR-RES ovarian it was 12.8 µM; in the experiment on DU-145 prostate it was 12.4 µM. Besides, the GI50 in the experiment with SF-295 CNS was 3.34 µM; in the experiment on MDA-MB-231 breast it was 2 µM. Also, the TGI is 11.2 µM in the experiment on MOLT-4 leukemia; 56.1 µM with UO-31 renal; 21.9 µM in the experiment with SN12C renal; 16.2 µM in the experiment on NCI-H226 lung; 25.4 µM in the experiment with NCI/ADR-RES ovarian; 24.9 µM with DU-145 prostate. Further, the figures for the TGI with SF-295 CNS and in the experiment on MDA-MB-231 breast were 16.3 µM and 12.4 µM, respectively.
For `CCOC(=O)c1c(C(F)(F)F)oc2c1ccc1nc3nonc3nc12`, the TGI in the experiment on MOLT-4 leukemia was found to be 12.6 µM; with UO-31 renal, 33.4 µM; in the experiment with SN12C renal, 31.7 µM; with NCI-H226 lung, 36.1 µM; in the experiment with SF-539 CNS, 32 µM; in the experiment with SR leukemia, 17.7 µM. Also, the TGI in the experiment with SF-295 CNS was above 63.3 µM.
Regarding `Cc1cc2c(cc1C)[n+]([O-])c(-c1c(Cl)cccc1Cl)c(N)[n+]2[O-]`, the TGI was above 100 µM in the experiment on MOLT-4 leukemia; 88.8 µM with UO-31 renal; above 100 µM with SN12C renal; 74.4 µM in the experiment on NCI-H226 lung; above 100 µM in the experiment with SF-539 CNS; above 100 µM in the experiment with SF-295 CNS.
`NNC(=S)N/N=C/C(Cl)=C(\Cl)C(=O)O`: the TGI in the experiment with MOLT-4 leukemia, with UO-31 renal, in the experiment on SN12C renal, with NCI-H226 lung, in the experiment with SF-539 CNS and with SR leukemia was above 100 µM throughout. Also, the TGI in the experiment with SF-295 CNS is above 100 µM.
As to `Nn1c(N=Nc2c(O)[nH]c3ccccc23)n[nH]c1=S`, the TGI with MOLT-4 leukemia, in the experiment with UO-31 renal, in the experiment with SN12C renal, in the experiment with NCI-H226 lung, with SF-539 CNS and in the experiment with SR leukemia was above 100 µM each time. Also, the TGI in the experiment on SF-295 CNS is above 100 µM.
Turning to `COc1cccc(Nc2nccc(Nc3ccc4[nH]ncc4c3)n2)c1`, the GI50 in the experiment with MOLT-4 leukemia was 0.525 µM; in the experiment on NCI-H226 lung, 1.82 µM; in the experiment with NCI/ADR-RES ovarian, 1.54 µM; in the experiment on DU-145 prostate, 1.3 µM; with SR leukemia, 1.34 µM; with SF-295 CNS, 1.66 µM. Further, the TGI is 2.83 µM in the experiment with MOLT-4 leukemia; 4.46 µM with NCI-H226 lung; 4.36 µM with NCI/ADR-RES ovarian; 2.85 µM with DU-145 prostate; 4.93 µM with SR leukemia; 3.17 µM in the experiment on SF-295 CNS.
For `Cc1cc(C)c2[s+]snc2c1`, the TGI in the experiment with MOLT-4 leukemia was above 100 µM; in the experiment with UO-31 renal it was above 100 µM; in the experiment with SN12C renal it was above 100 µM; in the experiment on NCI-H226 lung, above 100 µM; in the experiment on SF-539 CNS, above 100 µM; with SR leukemia it was 77 µM. The TGI in the experiment on SF-295 CNS is above 100 µM.
On to `O=C1c2ccccc2C(=O)c2sc(Nc3ccc(Cl)c(Cl)c3)nc21`, for which the TGI in the experiment with MOLT-4 leukemia was 6.37 µM; with UO-31 renal, 4.97 µM; in the experiment with SN12C renal, 3.23 µM; in the experiment with NCI-H226 lung, 16.2 µM; in the experiment on DU-145 prostate, 33.2 µM; with SF-539 CNS, 8.18 µM. Besides, the values for the TGI in the experiment on SR leukemia, in the experiment with SF-295 CNS and in the experiment on MDA-MB-231 breast were 11.5 µM, 29.4 µM and 6.82 µM, respectively.
Regarding `CP(C)C.[Ag][I]`, the TGI with MOLT-4 leukemia, with UO-31 renal, with SN12C renal, in the experiment with NCI-H226 lung, in the experiment on SF-539 CNS and in the experiment on SR leukemia was above 100 µM throughout. Besides, the TGI in the experiment on SF-295 CNS was above 100 µM.
Regarding `C[N+]1=c2c3cccc4cccc(c(=O)n2CCC1)c43`, the TGI is 58.9 µM with MOLT-4 leukemia; 39.5 µM in the experiment on UO-31 renal; 52.7 µM in the experiment with SN12C renal; 36.5 µM with NCI-H226 lung; above 100 µM in the experiment with SF-539 CNS; 46.9 µM in the experiment with SR leukemia. Moreover, in the experiment on SF-295 CNS, the TGI was above 100 µM.
For the compound `C=C1CC(C/C=C(\C)CC2CC(=C)C(=O)O2)OC1=O` (centres undefined), the TGI in the experiment with MOLT-4 leukemia, in the experiment with UO-31 renal, in the experiment on SN12C renal, with SF-539 CNS, in the experiment with SR leukemia and in the experiment on SF-295 CNS was above 100 µM each time.
Take `N#C/C(=C\c1ccc(O)cc1O)C(N)=O`: the TGI in the experiment on MOLT-4 leukemia, in the experiment with UO-31 renal, in the experiment on SN12C renal, with NCI-H226 lung, in the experiment on SF-539 CNS and in the experiment on SF-295 CNS was above 100 µM each time.
With `CCC[CH2][Sn]1([CH2]CCC)[O]C(=O)c2cc(C)ccc2[O]1`, the GI50 in the experiment on MOLT-4 leukemia is 0.301 µM; with UO-31 renal, 1.19 µM; with SN12C renal it was 0.547 µM; in the experiment with NCI-H226 lung, 1.85 µM; in the experiment on SF-539 CNS it was 0.521 µM; with SR leukemia, 0.295 µM. The GI50 in the experiment on SF-295 CNS was 0.628 µM. For the same compound, the TGI in the experiment on MOLT-4 leukemia came out at 1.09 µM; with UO-31 renal it was 2.45 µM; in the experiment on SN12C renal it was 1.86 µM; with NCI-H226 lung, 3.37 µM; with SF-539 CNS, 1.66 µM; with SR leukemia, 1.28 µM. This compound gave a TGI in the experiment with SF-295 CNS of 1.99 µM.
For `CCOC(=O)N1CCC(=O)C[C@@H]1C/C=C/P1(=O)O[C@H](c2ccccc2)C(C)N1C(C)C` (some centres undefined), the TGI in the experiment on MOLT-4 leukemia, in the experiment with UO-31 renal, with SN12C renal, in the experiment on NCI-H226 lung, in the experiment with SF-539 CNS and with SR leukemia was above 100 µM each time. For the same compound, the TGI in the experiment with SF-295 CNS is above 100 µM.

The record behind these values is PubChem BioAssay (NCI).
